Consider three compounds from patent US7193044B1, “Compounds and methods for regulating apoptosis, and methods of making and screening for compounds that regulate apoptosis” (Immunogen, Inc., priority 2000, dated 2007).

Entries after “also recorded” stand apart in the source; their conditions may differ. Residues, ends and D or L forms follow the SMILES beside them. *: point of attachment. Cbz = O=C(OCc1ccccc1)*; CH2F = FC*

In assay [1] the test system is HeLa cells. In words: Fluorescence-based beta-galactosidase assay of BAD-induced cell death in transfected HeLa cells. On the set-up: species or system human. On the procedure:
FIG. 12(B) is a graphic representation of the results of a β-galactosidase assay. HeLa cells were co-transfected with the β-galactosidase gene and either HA-BAD (“WT”), HA-BAD S155A (“S155A”), HA-BAD S112A/S136A (“S112A/S136A”) or HA-BAD S112A/S136A/S155A (“AAA”). Transfected cells were then cultured in serum-free medium (SFM) or SFM supplemented with EGF (SFM+EGF) for 12 hours. Cell lysates were prepared and BAD-induced cell death was measured by the loss of β-galactosidase activity in a fluorescence-based assay. Fluorescence was measured at 465 nm. Results shown are the average and standard deviation of triplicate transfections (this experiment was repeated two more times with similar results). Expression levels of HA-tagged BAD and BAD mutants in transfected cell lysates were detected by anti-HA western blot analysis: HA-BAD (“WT”), HA-BAD S155A (“A”), HA-BAD S112A/S136A (“AA”), and HA-BAD S112A/S136A/S155A (“AAA”).
FIG. 12(C) is a graphic representation of the results of a β-galactosidase assay. HeLa cells were co-transfected with the β-galactosidase gene and either an empty vector (“CTL”), wild-type BAD (“WT”), the BAD S155A mutant (“S155A”) or the BAD S155D mutant (“S155D”). Cell lysates were prepared and BAD-induced cell death was measured by the loss of β-galactosidase activity in a fluorescence-based assay. Fluorescence was measured at 465 nm. […]

Assay [2] relates to BAD phosphorylation in Rat-1 cells. Briefly: BAD phosphorylation in Rat-1 cells (western blot band-shift / anti-phospho-Ser155 antibody). In kind it is cell-based. From the text:
In the absence of a phospho-Ser155 antibody, it was difficult to conclude that this band-shift was solely the result of the phosphorylation of Ser155. However, it appeared that this response was at least primarily due to the phosphorylation at this site. This was based on the combined evidence, both in vitro and in cells, as described above (FIGS. 1, 2 and 4–7) and the fact that Ser155 is the only site of BAD homologous to the substrate consensus sequence of PKA.
Whether the BAD Ser155 kinase, PKA, is also activated by growth factors, and if so, whether such activation is PI 3-kinase dependent, was investigated. […] Cell lysates were analyzed via western blot analysis, probed using anti-HA antibody. […] However, the magnitude of phosphorylation was weaker and may be more transient, than the effect of Forskolin (FIG. 9(a)). Of note, Ser155 phosphorylation following IGF-1, EGF, or PDGF stimulation was not detected in HeLa cells (results not shown).
(§1) It has been documented that Akt kinase activity, the serine kinase shown to phosphorylate BAD Ser136, is induced by growth factors and is dependent on PI 3-kinase activation (Datta et al., 1997; del Peso et al., 1997). In related experiments, Rat-1 cells were pretreated with either the PKA inhibitor H89, or the PI 3-kinase inhibitor Wortmannin (available, e.g., from Sigma, St. Louis, Mo.), followed by stimulation with Forskolin (also available from Sigma) or PDGF. […] This indicated the shift was PKA dependent (FIG. 9(b), lower panel, compare lanes 5 and 6). […] It therefore presumably had no effect on PDGF-induced activation of PI 3-kinase.
To examine whether endogenous BAD is phosphorylated on Ser155 in response to growth factors, serum-starved Rat-1 fibroblasts were stimulated with PDGF. Whole cell lysates were prepared and endogenous BAD was immunoprecipitated. Proteins were separated by SDS-PAGE, and Ser155 phosphorylation was analyzed by Western blot using the phospho-S155 antibody and an anti-BAD antibody.
For orientation: Immunoblotting shows a protein as a band on a membrane.

For assay [3], the system named is BAD Ser155 phosphorylation in HeLa cells. In words: BAD phosphorylation in HeLa cells (western blot band-shift / anti-phospho-Ser155 antibody). Format: cell-based, human. On the procedure: A mammalian expression vector encoding mutant HA-BAD S155A, derived from the shorter murine BAD of SEQ ID NO:3, was constructed. HA-BAD S155A has an amino acid sequence wherein the serine at a position corresponding to Ser155 is substituted with alanine. A western blot was performed on WCL prepared from cells expressing the shorter murine BAD (SEQ ID NO:3), HA-BAD S112A, HA-BAD S136A, or HA-BAD S155A, and probed with anti-HA antibody.
A western blot analysis, probed with anti-HA antibody, was performed on lysates produced from the Forskolin treated and untreated (control) cells to determine whether Forskolin could induce the phosphorylation BAD or mutant BAD.
HeLa cells transiently expressing HA-BAD, HA-BAD S155A, HA-BAD S112A/S136A, or HA-BAD S112A/S136A/S155A were treated with Forskolin or a buffer control.
The HA-BAD S112A/S136A double mutant was transiently expressed in HeLa cells, and transfected cell cultures were treated with each of the GPCR ligands, individually and as a group. A western blot analysis, probed with anti-HA antibody, was performed on lysates produced from the treated and untreated (negative control) cells. […] Forskolin (FK) and no treatment (−) were positive and negative controls, respectively (FIG. 6(a), […], respectively).
Non-transfected HeLa cells were treated with Forskolin or L-epinephrine, followed by western blot analysis of cell lysates using anti-BAD antibodies.
Transformants were treated with L-epinephrine, then lysed and subjected to anti-HA western blot analysis.
(§2) To further test whether phosphorylation of Ser155 is dependent on the PI 3-kinase/Akt pathway, HeLa cells were transfected with the mutant HA-BAD S155A and pretreated with Wortmannin, an inhibitor of PI 3-kinase. These cells were then stimulated with epidermal growth factor (EGF), lysed and analyzed by western blot analysis.
For immunoprecipitation of all HA-BAD species, 1 μg of the anti-HA antibody was added to the cell lysates, and incubated at 4° C. for one hour. Protein G agarose (Pierce) was then added (50 μl/fraction of 50% slurry) and followed by a one hour incubation at 4° C. Beads were washed with RIPA buffer, boiled in loading buffer (2% SDS, 10% glycerol, 5% β-ME, 60 mM Tris, pH 6.8, 0.002% Bromophenol Blue) and loaded onto polyacrylamide gels. After electrophoresis, proteins were transferred to nitrocellulose membranes, and blots blocked in western wash buffer (40 mM Tris, pH 8.0, 150 mM NaCl, 0.2% NP-40) with 5% BSA for one hour at room temperature. Blots were incubated with primary antibody diluted in western wash buffer with 3% BSA at room temperature for 1–2 hours, washed with western wash buffer and incubated with secondary HRP-coupled antibody diluted in western wash buffer with 1.5% BSA, and washed extensively. Polypeptides were detected with the ECL chemiluminescence according to the manufacturers instructions (Amersham).

Assay [4] concerns Akt. In words: Akt activation in HeLa cells (anti-phospho-S473 Akt western blot). Format: cell-based, human. As to conditions: serum-starved HeLa cells, pretreatment then EGF.
From the text: FIG. 10(B) is a series of western blots. Serum-starved HeLa cells expressing HA-BAD S155A, were pretreated with a buffer control (lanes 1 and 2), AG1478 (“AG”) (lane 3), Wortmannin (“Wm”) (lane 4), or H89 (lane 5). The cell cultures were then stimulated with a buffer control (lane 1) or EGF (lanes 2–5). Whole cell lysates were made from the cultures and the proteins were separated by SDS-PAGE. Blots were probed with either an anti-activated EGF receptor antibody (“activated EGFR”) (panel A), an anti-phospho-S473 Akt antibody (“pS473 Akt”) (panel B), or an anti-phospho-S155 BAD antibody (“pS155 BAD”) (panel D). Reblots were probed with either an anti-Akt antibody (“Akt”) (panel C) or an anti-HA BAD antibody (“HA-BAD”) (panel E).
as §2

Assay [5] has as its system Akt. Briefly: Akt activation in Rat-1 cells (anti-phospho-S473 Akt western blot). The following applies: pretreatment then PDGF. Format: cell-based. On the procedure: FIG. 9(B) is two western blots. Rat-1 cells transiently expressing HA-BAD S112A/S136A were treated with a buffer control, H89 (PKA inhibitor) or Wortmannin (PI 3-kinase inhibitor), prior to stimulation with Forskolin or platelet-derived growth factor (“PDGF”). Whole cell lysates were then prepared and proteins were separated by SDS-PAGE. Blots were separately probed with an anti-phospho-S473 Akt antibody (the kinase that phosphorylates Ser136) (upper panel) and an anti-BAD antibody (lower panel).
as §1

Assay [6] concerns HeLa cells. In words: Beta-gal ELISA apoptosis assay in transfected HeLa cells. Format: cell-based, human. As to conditions: transfected cells, data not shown. On the procedure:
Because BAD Ser155 phosphorylation, like Ser136 phosphorylation, prevents BAD from binding to Bcl-XL (FIG. 1), it was possible that by analogy, Ser155 dephosphorylation promotes cell death. To test this idea, HeLa cells were co-transfected with BAD or various BAD serine mutants and a β-gal reporter plasmid. Twenty-four hours post-transfection, cell viability was analyzed by β-gal ELISA.
To test this idea, HeLa cells were again co-transfected with BAD or various BAD serine mutants and a β-gal reporter plasmid. Forskolin was then added to half of the cultures while the other half was left untreated. Beta-gal ELISAs were performed 24 hours post transfection. […] Thus, phosphorylation of Ser155 rescues cells from BAD-induced apoptosis, while substitution of Ser155 with a nonphosphorylatable residue results in increased cell death and the failure of cells to be protected from induced PKA activity.
Beta-gal ELISA assays were performed using the β-gal ELISA system from Boehringer Mannheim, according to manufacture's instructions. Cells were transfected with BAD (or BAD mutant) and β-gal in a ratio of 5:1. The transfected cells were trypsinized and distributed into 96-well tissue culture plates. […] The β-gal activity was measured by the absorbance of the sample at […]. Data were based on triplicate wells with standard deviations calculated.

In the case of EGF: epidermal growth factor, the “suppression of pro-apoptotic function of BAD” value in assay [1] (serum-free medium plus EGF for 12 hours) was “suppressed the pro-apoptotic function of BAD”. In addition, in assay [2] (transfected Rat-1 fibroblasts), the “induction of band-shift of HA-BAD S112A/S136A” value was “induced a band-shift”. In assay [3] (HeLa cells, results not shown), the “Ser155 phosphorylation following growth factor stimulation” value is given as “not detected”. Besides, the “induction of Ser155 phosphorylation of HA-BAD S112A/S136” value in assay [3] (serum-starved transfected HeLa cells) was “stimulated the phosphorylation of BAD on Ser155”.

With `O=S(=O)(NCCNC/C=C/c1ccc(Br)cc1)c1cccc2cnccc12` [H89, reference compound], in assay [2] (Rat-1 cells), the “inhibition of Forskolin-induced BAD band-shift” value is “sensitive to the PKA inhibitor H89”. In addition, in assay [2] (Rat-1 cells, pretreatment then PDGF), the “inhibition of PDGF-induced BAD band-shift/phosphorylation” value is listed as “significantly reduced”. The “inhibition of PDGF-induced Ser155 phosphorylation of endogenous BAD” value in assay [2] (serum-starved Rat-1 cells, pretreatment) is “significantly reduced”. In addition, the “inhibition of L-epinephrine-induced band-shift of endogenous BAD” value in assay [3] (HeLa cells) is given as “band-shift was sensitive to the PKA inhibitor, H89; also recorded: blocked L-epinephrine-induced BAD phosphorylation”. In addition, in assay [3] (HeLa cells, treatment for one hour), the “basal phosphorylation of endogenous BAD” value is listed as “reduced basal phosphorylation of endogenous BAD”. Besides, the “inhibition of EGF-induced phosphorylation of BAD on Ser155” value in assay [3] (serum-starved HeLa cells transfected with HA-BAD S155A (so in the source), pretreatment then EGF, anti-phospho-S155 blot) is recorded as “BAD Ser155 phosphorylation was prevented”. For the same compound, the “inhibition of L-epinephrine-induced Ser155 phosphorylation of HA-BAD S112A/S136A” value in assay [3] (transfected HeLa cells) is “inhibitory effect of H89”. Moreover, the “effect on EGF-induced activation/phosphorylation of endogenous Akt” value in assay [4] is on record as “without affecting the phosphorylation of Akt”. The “effect on PDGF-induced Akt activation” value in assay [5] is given as “no effect on PDGF-induced Akt activation”.

For `CC(NC(=O)C(NC(=O)OCc1ccccc1)C(C)C)C(=O)NC(CC(=O)O)C(=O)CF` (stereo not drawn) [z-VAD, reference compound] (Cbz-Val-Ala-Asp-CH2F; configuration not given here), the “reversal of BAD-induced reduction of beta-gal activity” value in assay [1] is given as “reversed”. Also, the “protection from BAD-induced apoptosis” value in assay [6] was “efficiently protected the cells”.
